Patent publication US20260263603A1, “PRODRUGS, PRODRUG COMPOSITIONS AND RELATED METHODS” (Praesidia Biotherapeutics Inc., priority 2023, published 2026)
Read-outs that look alike come from different tables or passages of the source.

Columns and labels:
[1] = in vitro; conditions: 0.5 mg microsome/mL, 1 mM NADPH; for Rat liver microsomal stability (RLM) t½ min: 1 uM
Method: Precipitated proteins were removed by centrifugation, followed by withdrawing and diluting the supernatant for analysis. Two positive controls and negative controls (without NADPH) were used in the study. All samples were analyzed in duplicates. LC/MS/MS was performed for detection and quantification of the test compounds. Linear regression was determined using the remaining percentage of the parent drug at each incubation time and t1/2 value was calculated.

[2] = 37° C., 5 μM; for Chemical Stability, pH 4.5: pH 4.5 PBS; for Chemical Stability, pH 7.4: pH 7.4 PBS
Method: Chemical stability of the prodrug compounds was tested at pH 4.5 and pH 7.4 (pH adjusted in phosphate buffer saline). Both buffer solutions at two pHs were prepared in house. 2 μL of 500 μM stock solution of the prodrug was added to each vial containing 198 μL PBS at pH 7.4 or pH 4.5 and mixed evenly. The assay was performed in duplicate. The final concentration of the test compound was 5 μM. samples were incubated at 37° C. at 600 rpm. […] Samples from individual vials were used for the different time points. The samples were vortexed for 2 minutes and centrifuged at 3,220 g for 5 minutes at 4° C. […] of the supernatant was transferred to a new plate.

[3] = in vitro; conditions: for half-life at 5 μM: plasma; for Human Plasma Stability t½ min: 37° C., 5 μM, t½ > 240 min considered stable
Method: Rat and human plasma were obtained from qualified vendors. […] The assay was performed in duplicate.

[4] = molecular target: Glucocorticoid receptor (GR) (Homo sapiens, UniProt P04150)
Sequence of Glucocorticoid receptor (GR) (P04150 whole entry, species assumed): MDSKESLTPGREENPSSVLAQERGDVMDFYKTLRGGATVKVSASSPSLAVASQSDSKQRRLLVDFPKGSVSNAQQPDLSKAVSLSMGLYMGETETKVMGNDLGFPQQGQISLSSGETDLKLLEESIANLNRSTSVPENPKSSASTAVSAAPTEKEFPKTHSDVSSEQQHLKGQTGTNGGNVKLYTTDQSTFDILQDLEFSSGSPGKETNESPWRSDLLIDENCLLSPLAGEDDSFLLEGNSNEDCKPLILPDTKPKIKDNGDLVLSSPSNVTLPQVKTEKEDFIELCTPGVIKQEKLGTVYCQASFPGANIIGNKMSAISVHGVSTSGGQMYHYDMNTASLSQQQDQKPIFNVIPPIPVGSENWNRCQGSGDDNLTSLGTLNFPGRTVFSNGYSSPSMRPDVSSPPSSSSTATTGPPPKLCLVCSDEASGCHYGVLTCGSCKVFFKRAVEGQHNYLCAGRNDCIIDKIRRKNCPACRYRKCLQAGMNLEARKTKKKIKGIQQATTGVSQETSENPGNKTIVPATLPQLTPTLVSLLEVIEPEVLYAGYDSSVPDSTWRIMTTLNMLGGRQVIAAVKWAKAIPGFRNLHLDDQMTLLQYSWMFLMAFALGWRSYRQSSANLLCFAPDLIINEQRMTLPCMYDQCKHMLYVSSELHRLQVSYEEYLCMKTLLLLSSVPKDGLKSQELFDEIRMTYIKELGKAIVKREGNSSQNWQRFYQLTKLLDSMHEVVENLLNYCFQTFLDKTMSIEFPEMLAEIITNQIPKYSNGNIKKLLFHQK
Method: Glucocorticoid receptor (GR) binding of prodrugs was determined using TR-FRET GR competitive binding assay. Three-point (0.1, 1 and 10 μM) binding was evaluated for each prodrug.

[5] = in vitro; conditions: human, Caco-2, pH 7.4
Method: The objective of this study was to evaluate the bidirectional permeability and absorption mechanisms of the test compounds. CaCO-2 cells were cultured, and a monolayer was developed in-house in 96 well-plates over 18 days using standard protocol. The monolayer was tested for the integrity of the cell monolayer before using.
Test compounds were added to the transwell insert (apical compartment) to determine the rate of drug transport in the apical to basolateral direction. To determine the rate of drug transport in the basolateral to apical direction, the test compound was added to the receiver plate wells (basolateral compartment). Appropriate amount of HBSS (10 mM HEPES, pH 7.4) was added in both compartments for a final volume of 200 μL. The plates were incubated at 37° C. with shaking at 150 rpm on a rotary shaker for 2 hours. At the end of the transport period, 50 μL from the apical and basolateral wells were collected and 4 volume of cold acetonitrile containing internal standards (IS: 100 nM alprazolam, 200 nM labetalol, and 2 μM ketoprofen) was added to each sample to terminate the reaction. The samples were vortexed and centrifuged at 3,800 g for 20 minutes. An aliquot of 150 μL of the supernatant was used for LC/MS/MS analysis. All samples were analyzed in duplicates. Samples were analyzed through LC/MS/MS for estimating the permeability and efflux of the compounds across Caco-2 cell monolayers.

[6] = in vitro; conditions: dog, MDCK

C[C@@H]1C[C@H]2[C@@H]3CCC4=CC(=O)C=C[C@]4(C)[C@@]3(F)[C@@H](O)C[C@]2(C)[C@@]1(O)/C(CO)=N\NC(=O)C(N)Cc1ccccc1 (single isomer, unassigned) [Compound IIIA]
Rat liver microsomal stability (RLM) t½ min [1]: 0.55 h | Chemical Stability, pH 4.5 [2]: Yes | Chemical Stability, pH 7.4 [2]: Yes | half-life at 5 μM ([3]; human): > 4 h | half-life at 5 μM ([3]; rat): > 4 h

C[C@@H]1C[C@H]2[C@@H]3CCC4=CC(=O)C=C[C@]4(C)[C@@]3(F)[C@@H](O)C[C@]2(C)[C@@]1(O)C(=O)CO [Dexamethasone, reference compound]
GR Binding Data ([4]; @ 1 nM): 16% | GR Binding Data ([4]; @ 10 nM): 50% | GR Binding Data ([4]; @100 nM): 93%

C[C@@H]1C[C@H]2[C@@H]3CCC4=C/C(=N/NC(=O)[C@H](Cc5ccccc5)N(C)C)C=C[C@]4(C)[C@@]3(F)[C@@H](O)C[C@]2(C)[C@@]1(O)C(=O)CO [Compound IXA]
half-life at 5 μM ([3]; rat): > 4 h

C[C@@H]1C[C@H]2[C@@H]3CCC4=C/C(=N\NC(=O)[C@H](N)Cc5ccccc5)C=C[C@]4(C)[C@@]3(F)[C@@H](O)C[C@]2(C)[C@@]1(O)C(=O)CO [Compound VIIIB]
GR Binding Data ([4]; @ 0.1 uM): 19% | GR Binding Data ([4]; @ 1 uM): 26% | GR Binding Data ([4]; @ 10 uM): 72% | half-life at 5 μM ([3]; rat): > 4 h

CCC(=O)N/N=C(\CO)[C@@]1(O)[C@H](C)C[C@H]2[C@@H]3CCC4=CC(=O)C=C[C@]4(C)[C@@]3(F)[C@@H](O)C[C@@]21C [Compound II]
Chemical Stability, pH 4.5 [2]: Yes | Chemical Stability, pH 7.4 [2]: Yes | half-life at 5 μM ([3]; human): > 4 h

CC(C)C(N)C(=O)N/N=C(/CO)[C@@]1(O)[C@H](C)C[C@H]2[C@@H]3CCC4=CC(=O)C=C[C@]4(C)[C@@]3(F)[C@@H](O)C[C@@]21C (single isomer, unassigned) [Compound IVB]
Rat liver microsomal stability (RLM) t½ min [1]: 1.8 h | GR Binding Data ([4]; @ 0.1 uM): 3% | GR Binding Data ([4]; @ 1 uM): 16% | GR Binding Data ([4]; @ 10 uM): 72% | Chemical Stability, pH 4.5 [2]: Yes | Chemical Stability, pH 7.4 [2]: Yes | Human Plasma Stability t½ min [3]: >4 h

C[C@@H]1C[C@H]2[C@@H]3CCC4=C/C(=N\NC(=O)[C@H](Cc5ccccc5)N(C)C)C=C[C@]4(C)[C@@]3(F)[C@@H](O)C[C@]2(C)[C@@]1(O)C(=O)CO [Compound IXB]
half-life at 5 μM ([3]; rat): > 4 h

CC(C)C(N)C(=O)N/N=C1\C=C[C@@]2(C)C(=C1)CC[C@H]1[C@@H]3C[C@@H](C)[C@](O)(C(=O)CO)[C@@]3(C)C[C@H](O)[C@@]12F (single isomer, unassigned) [Compound VB]
Chemical Stability, pH 4.5 [2]: Yes | Chemical Stability, pH 7.4 [2]: Yes

CC(C)C(N)C(=O)N/N=C(/CO)[C@@]1(O)[C@H](C)C[C@H]2[C@@H]3CCC4=CC(=O)C=C[C@]4(C)[C@@]3(F)[C@@H](O)C[C@@]21C (single isomer, unassigned) [Compound IVA]
Rat liver microsomal stability (RLM) t½ min [1]: 0.583 h | GR Binding Data ([4]; @ 0.1 uM): 4% | GR Binding Data ([4]; @ 1 uM): 8% | GR Binding Data ([4]; @ 10 uM): 64% | Chemical Stability, pH 4.5 [2]: Yes | Chemical Stability, pH 7.4 [2]: Yes | half-life at 5 μM ([3]; human): > 4 h | half-life at 5 μM ([3]; rat): > 4 h | Papp A→B at 2 h [5]: 0.2 ×10⁻⁶ cm/s | Papp B→A at 2 h [5]: 4 ×10⁻⁶ cm/s

C[C@@H]1C[C@H]2[C@@H]3CCC4=C/C(=N/NC(=S)[C@@H](N)Cc5ccccc5)C=C[C@]4(C)[C@@]3(F)[C@@H](O)C[C@]2(C)[C@@]1(O)C(=O)CO [Compound X]
Papp A→B [6]: < 0.17 ×10⁻⁶ cm/s | Papp B→A [6]: 1.82 ×10⁻⁶ cm/s | half-life at 5 μM ([3]; rat): 2.08 h | Papp A→B at 2 h [5]: 0.33 ×10⁻⁶ cm/s | Papp B→A at 2 h [5]: 4 ×10⁻⁶ cm/s

C[C@@H]1C[C@H]2[C@@H]3CCC4=C/C(=N/NC(=O)[C@@H](N)Cc5ccccc5)C=C[C@]4(C)[C@@]3(F)[C@@H](O)C[C@]2(C)[C@@]1(O)C(=O)CO [Compound VIIA]
Chemical Stability, pH 4.5 [2]: Yes | Chemical Stability, pH 7.4 [2]: Yes | Papp A→B [6]: 0.15 ×10⁻⁶ cm/s | Papp B→A [6]: 1.29 ×10⁻⁶ cm/s | half-life at 5 μM ([3]; rat): > 4 h | Papp A→B at 2 h [5]: 0.17 ×10⁻⁶ cm/s | Papp B→A at 2 h [5]: 11 ×10⁻⁶ cm/s

CCC(=O)N/N=C1\C=C[C@@]2(C)C(=C1)CC[C@H]1[C@@H]3C[C@@H](C)[C@](O)(C(=O)CO)[C@@]3(C)C[C@H](O)[C@@]12F [Compound I]
Chemical Stability, pH 4.5 [2]: Yes | Chemical Stability, pH 7.4 [2]: Yes | half-life at 5 μM ([3]; human): > 4 h

C[C@@H]1C[C@H]2[C@@H]3CCC4=CC(=O)C=C[C@]4(C)[C@@]3(F)[C@@H](O)C[C@]2(C)[C@@]1(O)/C(CO)=N\NC(=O)C(N)Cc1ccccc1 (single isomer, unassigned) [Compound IIIB]
Rat liver microsomal stability (RLM) t½ min [1]: 1.35 h | GR Binding Data ([4]; @ 0.1 uM): 8% | GR Binding Data ([4]; @ 1 uM): 8% | GR Binding Data ([4]; @ 10 uM): 68% | Chemical Stability, pH 4.5 [2]: Yes | Chemical Stability, pH 7.4 [2]: Yes | Human Plasma Stability t½ min [3]: >4 h

C[C@@H]1C[C@H]2[C@@H]3CCC4=C/C(=N\NC(=O)[C@@H](N)Cc5ccccc5)C=C[C@]4(C)[C@@]3(F)[C@@H](O)C[C@]2(C)[C@@]1(O)C(=O)CO [Compound VIIB]
Chemical Stability, pH 4.5 [2]: Yes | Chemical Stability, pH 7.4 [2]: Yes | Papp A→B [6]: 0.12 ×10⁻⁶ cm/s | Papp B→A [6]: 0.87 ×10⁻⁶ cm/s | half-life at 5 μM ([3]; rat): > 4 h | Papp A→B at 2 h [5]: 0.13 ×10⁻⁶ cm/s | Papp B→A at 2 h [5]: 9 ×10⁻⁶ cm/s

CC(C)C(N)C(=O)N/N=C1\C=C[C@@]2(C)C(=C1)CC[C@H]1[C@@H]3C[C@@H](C)[C@](O)(C(=O)CO)[C@@]3(C)C[C@H](O)[C@@]12F (single isomer, unassigned) [Compound VA]
half-life at 1 uM ([1]; rat, liver microsomes, Rat liver microsomal stability (RLM) t½ min): 0.733 h | Chemical Stability, pH 4.5 [2]: Yes | Chemical Stability, pH 7.4 [2]: Yes | half-life at 5 μM ([3]; rat): > 4 h
